Measured values taken from article PMC8864858, “Synthesis, in vitro biological evaluation and molecular modelling of new 2-chloro-3-hydrazinopyrazine derivatives as potent acetylcholinesterase inhibitors on PC12 cells” (BMC Chemistry, 2022).
“Also recorded” adds a separate entry of the source.

Assays:
[1] = ABTS radical decolorization assay; assay type: physicochemical; details: final concentration 1–30 μM, absorbance at 734 nm
Experimental: (§1) The radical scavenging activity of prepared compounds was assessed through using ABTS decolorization assay and method reported by Re et al. with few modifications. In this regard, ABTS solution was diluted with 80% ethanol to the absorbance of 0.70 ± 0.05 at 734 nm. After adding 100 µL of the obtained compounds in ethanol (1–30 µM) or ascorbic acid, absorbance was measured at exactly 20 min in the same wavelength. DPPH assay was based on the method provided by Ghafouri et al. with some modifications. Additionally, the quenching of free radicals by novel synthesized compounds was evaluated spectrophotometrically (UV–Vis Pharmacia Biotech Ultrospec 3000) at 517 nm against the absorbance of DPPH radical. Further, ferric reducing/antioxidant power (FRAP) assay was performed according to the previous study with some modifications, the principle of which was based on reducing a ferric 2,4,6-tris(2-pyridyl)-1,3,5-triazine (Fe^3+-TPTZ) to ferrous in the presence of prepared compounds. Finally, a standard curve was drawn by considering the different concentrations (10–1000 µM) of ferrous sulfate.

[2] = DPPH radical scavenging assay; assay type: physicochemical; details: for Scavenging activity on DPPH radical (in words): Fig. 3B
Experimental: as §1

HSP70 = assay: Western blot analysis of HSP70 in PC12 cells; assay type: cell-based, Rattus norvegicus; details: PC12 cells in presence of Ab1-42; CHP4 30 μM (b1)
Experimental: (§2) To this end, the cells were seeded in the 6-well plate and treated with 20 and 30 µM CHP4 for 24 h. Additionally, they were washed with cold PBS, followed by lysing with lysis buffer (20 mM Tris (pH 7.5), 150 mM NaCl, 1 mM EDTA, 1% NP-40, 0.5% sodium deoxycholate, 0.1% SDS, 50 mM Tris, protease and phosphatase inhibitor cocktails) for 30 min on ice. After centrifuging lysates at 4 °C in 12,000g for 10 min, the supernatants were transferred to new tubes. Protein concentration was detected through using the Bradford assay. Further, the denatured proteins was resolved on SDS-PAGE, transferred onto PVDF membranes (Millipore, Billerica, MA, USA), and blocked with 5% nonfat dry milk in the PBS containing 0.1% Tween-20 (PBST). Then, the membranes were incubated with the rabbit primary antibodies against Tau-p, HSP70, and β-actin (as a control group) overnight at 4 °C, and exposed with the horseradish peroxidase (HRP)-conjugated second antibody for 2 h at room temperature. Finally, the density of relative protein bands was determined through densitometric scanning the blots by using Image-J program.

[3] = Ferric reducing/antioxidant power (FRAP) assay; assay type: physicochemical; details: for Antioxidant effect in FRAP (in words): Fig. 3C
Experimental: as §1

[4] = biological target: T1, AChE from Electrophorus electricus (Electrophorus electricus, UniProt O42275); assay: biochemical; details: Ellman method, compounds 0.1–10 µM, triplicate; read-out: IC50 against AChE activity
T1 construct: purchased Sigma
Experimental: The AChE inhibitory activity of all synthesized novel derivatives and their controls was evaluated through using the Ellman method. […] Each concentration was assayed in triplicate. […] Finally, absorbance was recorded by using a Pharmacia Biotech Ultrospec 3000 UV–Vis spectrophotometer at 410 nm.

PC12 cells [5] = assay: Ab1-42-induced cytotoxicity in PC12 cells, neuroprotection (MTT); assay type: cell-based; details: 100 µM Ab1-42, 24 h
Experimental: Rattus norvegicus pheochromocytoma PC12 cells (Pastor Institute, Iran) were cultured in the Dulbecco's Modified Eagle's Medium (DMEM) containing 10% fetal bovine serum (FBS) and 1% penicillin/streptomycin (Gibco) at 37 °C with 5% CO2. […] Furthermore, 50 µL of DMSO and 10 µL of 0.5 mg/mL MTT stock solution were added to each well containing about 1 mL of medium and the mixture was incubated for 4 h. Then, the plates were agitated on a plate shaker for 30 min and optical density was read at 570 nm by using an ELISA reader (Biotech).

Tau-p = assay: Western blot analysis of Tau-p in PC12 cells; assay type: cell-based, Rattus norvegicus; details: PC12 cells in presence of Ab1-42; CHP4 at 20 and 30 µM, 24 h
Experimental: as §2

PC12 cells [6] = assay: Cell viability of PC12 cells treated with CHP4 (MTT); assay type: cell-based; details: concentrations of 0–100 μM; 24 and 48 h
Experimental: Rattus norvegicus pheochromocytoma PC12 cells (Pastor Institute, Iran) were cultured in the Dulbecco's Modified Eagle's Medium (DMEM) containing 10% fetal bovine serum (FBS) and 1% penicillin/streptomycin (Gibco) at 37 °C with 5% CO2. In order to examine the role of CHP4, PC12 cells were treated with the different concentrations (10–100 µM) of CHP4 for 24 and 48 h. […] Furthermore, […] 10 µL of 0.5 mg/mL MTT stock solution were added to each well containing about 1 mL of medium and the mixture was incubated for 4 h. Then, the plates were agitated on a plate shaker for 30 min and optical density was read at 570 nm by using an ELISA reader (Biotech).

T1 sequence (O42275 24-633): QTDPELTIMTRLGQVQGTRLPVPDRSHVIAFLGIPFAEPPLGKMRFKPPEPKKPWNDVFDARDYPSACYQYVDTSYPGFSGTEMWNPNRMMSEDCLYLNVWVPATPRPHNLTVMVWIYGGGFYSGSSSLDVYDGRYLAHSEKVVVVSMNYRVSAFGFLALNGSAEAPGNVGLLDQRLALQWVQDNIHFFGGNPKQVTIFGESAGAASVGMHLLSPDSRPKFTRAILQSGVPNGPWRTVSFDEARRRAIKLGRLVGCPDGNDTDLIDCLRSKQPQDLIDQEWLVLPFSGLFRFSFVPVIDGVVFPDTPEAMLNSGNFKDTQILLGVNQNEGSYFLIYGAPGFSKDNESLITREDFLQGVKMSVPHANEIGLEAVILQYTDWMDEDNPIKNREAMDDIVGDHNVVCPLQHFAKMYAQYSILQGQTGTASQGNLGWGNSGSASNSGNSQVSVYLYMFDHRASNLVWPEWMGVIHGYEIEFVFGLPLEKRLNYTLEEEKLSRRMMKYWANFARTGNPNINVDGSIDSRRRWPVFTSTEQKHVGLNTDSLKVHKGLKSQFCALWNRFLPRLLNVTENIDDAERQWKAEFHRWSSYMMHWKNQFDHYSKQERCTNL

Compound | Scavenging activity on DPPH radical (in words) [2] | Antioxidant effect in FRAP (in words) [3] | IC50 [4] | further results
COc1ccc(/C=N/Nc2nccnc2Cl)cc1 [CHP1, (E)-2-chloro-3-(2-(4-methoxybenzylidene) hydrazinyl) pyrazine] | moderate | – | – | ABTS radical scavenging activity (inhibition) [1]: 48%
Cc1ccc2occ(/C=N/Nc3nccnc3Cl)c(=O)c2c1 [CHP2, (E)-3-((2-(3-chloropyrazin-2-yl)hydrazineylidene)methyl)-6-methyl-4H-chromen-4-one] | highest scavenging activity | – | – | IC50 ([2]; 517 nm): 26 µM
Oc1cccc(/C=N/Nc2nccnc2Cl)c1 [CHP3, (E)-3-((2-(3-chloropyrazin-2-yl)hydrazineylidene)methyl)phenol] | highest scavenging activity | – | – | –
Oc1ccccc1/C=N/Nc1nccnc1Cl [CHP4, (E)-2-((2-(3-chloropyrazin-2-yl)hydrazineylidene)methyl)phenol] | highest scavenging activity | highest | 3.76 µM | HSP70 expression (western blot) (HSP70): significantly increased; also recorded: increased HSP70 expression; Ability for Fe3+ reduction (FRAP) ([3]; printed as 3.016 per 1 mM, concentration of Fe2+): 3.016; Effect on Ab1-42-induced cell death (PC12 cells [5]): significantly reduced the Ab1-42-induced cell death in a dose-dependent manner; Tau-p expression (western blot) (Tau-p): clearly decreased; Toxicity in PC12 cells (PC12 cells [6]): non-toxic
Clc1ccc(/C=N/Nc2nccnc2Cl)cc1 [CHP5, (E)-2-chloro-3-(2-(4-chlorobenzylidene)hydrazineyl)pyrazine] | low | least | 4.2 µM | –
